Patent publication US10137113B2, “5-HT4 receptor agonist as a prokinetic agent” (RaQualia Pharma Inc., priority 2011, dated 2018)

What was measured:
[1] = tested on: gastric antrum of conscious dogs; test: Gastric antral motility by implanted force transducers, fasted conscious dogs, oral dosing; format: in vivo, dog
Method: (§1) GI motility was assessed by processing the signals from the force transducers implanted in dogs prepared for investigation of motility. Briefly, dogs were anesthetized with isoflurane and the abdominal cavity was opened under aseptic conditions. Extraluminal force transducers (F-12IS, Star Medical, Tokyo) were sutured onto the seromuscular layer of the gastric antrum, the gastric body, the duodenum, and the proximal colon. After the surgery, protective jackets were placed on the dogs and they were housed in individual cages. The dogs were fasted overnight before the experiment and placed in the shield room. The motility was measured with a telemetry system (GTS-800, Star Medical, Tokyo) and data acquired into a personal computer with the acquisition software (Eight Star, Star Medical, Tokyo). After confirmation of interdigestive migrating complex (IMC), the test drugs were administered orally. Gut motility was then recorded more than 5 hours (hrs). To measure the gastric motility quantitatively, motor indexes that represent areas of contractions were calculated. The signals from the force transducer were acquired on a personal computer and analyzed by processing software (Analyze II; StarMedical). In the fasted state, the areas surrounded by the contraction curve and the baseline were determined every 2 hrs after administration. For standardization, the calculated areas were divided by the IMC peak height before administration, and they were used as the motor index (MI). Results are presented as the mean+/− standard error of the mean (S.E.M., N=4-5). Statistical analysis was performed with Dunnett's multiple comparison test using GraphPad Prism (GraphPad Software, Inc.).

[2] = tested on: gastric antrum and duodenum of conscious dogs; test: Gastro-duodenum contractions by implanted force transducers, fasted conscious dogs, oral dosing; format: in vivo; conditions: dog, 0.3 mg/kg (dose that enhances proximal colon motility), FIG. 5
Method: GI motility was assessed by processing the signals from the force transducers implanted in dogs prepared for investigation of motility. Briefly, dogs were anesthetized with isoflurane and the abdominal cavity was opened under aseptic conditions. Extraluminal force transducers (F-12IS, Star Medical, Tokyo) were sutured onto the seromuscular layer of the gastric antrum, the gastric body, the duodenum, and the proximal colon. After the surgery, protective jackets were placed on the dogs and they were housed in individual cages. The dogs were fasted overnight before the experiment and placed in the shield room. The motility was measured with a telemetry system (GTS-800, Star Medical, Tokyo) and data acquired into a personal computer with the acquisition software (Eight Star, Star Medical, Tokyo). […] Gut motility was then recorded more than 5 hours (hrs). To measure the gastric motility quantitatively, motor indexes that represent areas of contractions were calculated. The signals from the force transducer were acquired on a personal computer and analyzed by processing software (Analyze II; StarMedical). In the fasted state, the areas surrounded by the contraction curve and the baseline were determined every 2 hrs after administration. For standardization, the calculated areas were divided by the IMC peak height before administration, and they were used as the motor index (MI). […]

[3] = tested on: proximal colon of conscious dogs; test: Proximal colon motility by implanted force transducers, fasted conscious dogs, oral dosing; format: in vivo; conditions: dog
Method: as §1

Compound: COCCCN1CCC(NC(=O)c2cc(Cl)c(N)c3c2OCC3)CC1 [prucalopride]
- gastric antral motility ([1]; dog, fasted, oral, 0.1 mg/kg, FIG. 5): stimulated gastric antral motility
- gastro-duodenum contractions [2]: induced excessive gastro-duodenum contractions
- contractions of proximal colon ([3]; 0.1 mg/kg, FIG. 5): did not affect contractions of proximal colon
- colonic motor activity ([3]; 0.3 mg/kg, FIG. 5): enhanced the colonic motor activity

Compound: CCOc1cc(N)c(Cl)cc1C(=O)NCC1CN(Cc2ccc(F)cc2)CCO1 (stereo not drawn) [mosapride]
- gastric antral motility ([1]; dog, fasted, oral, 3 mg/kg, FIG. 3): tended to increase the antral motility

Compound: O=C(O)C1(CN2CCC(COc3noc4cccc(OCC(F)(F)F)c34)CC2)CCOCC1 [Compound A, 4-{[4-({[4-(2,2,2-trifluoroethoxy)-1,2-benzisoxazol-3-yl]-oxy}methyl)piperidin-1-yl]methyl}tetrahydro-2H-pyran-4-carboxylic acid]
- effects on GI motility / potency relative to other 5-HT4 agonists (cisapride, mosapride, tegaserod) ([1]; dog GI motility models): more than 100 times
- potency relative to cisapride in enhancing gastric antral motility ([1]; dog, fasted, oral): approximately 1000 times
- minimum effective dose, change in motor index (MI) of gastric antral motility ([1]; dog, fasted, oral, 0 to 2 hour period after administration, statistical significance (Dunnett)): 1 micro g/kg
- gastric antral motor activity ([1]; dog, fasted, oral, 0.1-10 micro g/kg, FIG. 1): increased the gastric antral motor activity in dose dependent manner
- amplitude and frequency of contractions in the proximal colon ([3]; 1 micro g/kg, FIG. 4): enhanced
- occurrence of giant migrating contractions ([3]; after treatment): facilitated the occurrence of giant migrating contractions

Compound: COc1cc(N)c(Cl)cc1C(=O)NC1CCN(CCCOc2ccc(F)cc2)CC1OC (stereo not drawn) [Cisapride, cisapride]
- gastric antral motility ([1]; dog, fasted, oral, 1 mg/kg, FIG. 2): significantly increased gastric antral motility
